# Where “and” joins values, the source holds several entries; their conditions need not be identical. Equal values may be shown once. Where a name gives a salt, the structure may show the parent alone.
# Test system: ovarian cancer cells with (OVCAR8, OVCAR4) or without (OVSAHO, CAOV3) MYC-HSF1 amplification
# Assay: Epigenetic inhibitor drug screen, cell viability (Cell Titer Blue)
# Type: cell-based
# Conditions: not given
row,Molecule,Non Amp - AMP (POC) 10 uM
1,N=C1NC(=O)/C(=C/c2ccc(O)cc2)S1 [Mirin],4.24 POC
2,"C/C=C1\NC(=O)[C@H]2CSSCC/C=C/[C@H](CC(=O)N[C@H](C(C)C)C(=O)N2)OC(=O)[C@H](C(C)C)NC1=O [Romidepsin (FK229, depsipeptide), Romidepsin]",4.459 POC

# Same assay, conditions: 10 uM, 48 hrs; average relative cell viability (vs 1% DMSO) of non-amplified cells (OVSAHO, CAOV3) minus that of MYC-HSF1 amplified cells (OVCAR8, OVCAR4); positive = greater response in amplified cells
row,Molecule,Non Amp - AMP (POC) 10 uM
1,"COc1cc2c(cc1O)CC[C@@H]1[C@@H]2CC[C@]2(C)[C@@H](O)CC[C@@H]12 [2-Methoxyestradiol (2-MeOE2), 2-Methoxyestradiol]",23.41 POC
2,Cc1cc(Nc2cc(N3CCN(C)CC3)nc(/C=C/c3ccccc3)n2)n[nH]1.O=C(O)C(O)C(O)C(=O)O [ENMD-2076 L-(+)-Tartaric acid],−24.46 POC
3,Cc1cc(C)c(CNC(=O)c2cc(-c3ccc(CN4CCOCC4)cc3)cc3c2cnn3C2CCCC2)c(=O)[nH]1 [EPZ005687],15.13 POC
4,C=C1C[C@@]2(O)O[C@@]3(C[C@H]2C(C)C)[C@@H](C)CC[C@@H]13 [Curcumol],−1.726 POC
5,Nc1ccn([C@@H]2O[C@H](CO)[C@@H](O)[C@@H]2O)c(=O)n1 [Cytarabine],1.9 POC
6,COc1ccc2c(c1)c(C1=C(c3c[nH]c4ccccc34)C(=O)NC1=O)cn2CCCN(C)C [Go 6983],14.34 POC
7,CS(=O)(=O)O.Cn1cc(C2=C(c3cn(CCCSC(=N)N)c4ccccc34)C(=O)NC2=O)c2ccccc21 [Ro 31-8220 Mesylate],3.048 POC
8,O=C([C@@H](Cc1cccc(C(F)(F)F)c1)NS(=O)(=O)c1cc(F)c2c(c1)CCNC2)N1CCCC1 [PFI-2],−2.63 POC
9,"CN(C)CCCCC(=O)Nc1ccc(NC(=S)NC(=O)c2ccc(C(C)(C)C)cc2)cc1.Cl [Tenovin-6 (hydrochloride), Tenovin-6]",−3.503 POC
10,O=C(CBr)c1ccc(O)cc1 [PTP Inhibitor I],−3.586 POC
11,COc1cc(C#N)ccc1S(=O)(=O)Nc1ccc2c(c1)cc(C)c(=O)n2C [NI-57],11.2 POC
12,CCn1c(-c2nonc2N)nc2c(C#CC(C)(C)O)ncc(OC[C@H]3CCCNC3)c21 [GSK690693],−7.029 POC
13,c1ccc([C@@H]2C[C@H]2NC2CCNCC2)cc1 [GSK-LSD1 (hydrochloride)],14.88 POC
14,O=C(O)CCNc1cc(N2CCc3ccccc3CC2)nc(-c2cccnc2)n1 [GSK J2],0.5701 POC
15,CCC1C/C(=C\c2cccnc2)C(=O)/C(=C/c2cccnc2)C1 (stereo not shown) [MCB-613],−5.355 POC
16,NC(=O)c1ccccn1 [Picolinamide],20.35 POC
17,Br.CC1CC/C(=N\Nc2nc(-c3ccc(Cl)cc3)cs2)C1 (stereo not shown) [CPTH6 (hydrobromide)],13.3 POC
18,COc1cc2nc(N3CCCC3)nc(NCCCCCN3CCCC3)c2cc1OC [UNC0379],21.92 POC
19,Cc1cc(Nc2cc(N3CCN(C)CC3)nc(/C=C/c3ccccc3)n2)n[nH]1 [ENMD-2076],−22.8 POC
20,Cc1csc(-c2nnc(Nc3ccc(Oc4ncccc4-c4ccnc(N)n4)cc3)c3ccccc23)c1 [AMG-900],4.126 POC
21,Cc1cn(CCN2CCN(c3ccccc3-c3cc(C#N)cc(C(=O)NCCCN4CCCC4)c3)CC2)c2ccccc12 [LLY507],−14.82 POC

row,Molecule,Non Amp - AMP (POC) 10 uM
1,O=c1c(O)c(-c2ccc(O)c(O)c2)oc2cc(O)ccc12 [Fisetin],10.02 POC
2,SNS-314 Mesylate,1.355 POC
3,O=C([O-])[C@@]1(CCCCCCOc2ccc(Cl)cc2)CO1.[Na+] [(R)-(+)-Etomoxir sodium salt],3.941 POC
4,Cc1cc(Nc2cc(CN3CCOCC3)c3nc(C)c(Cc4ccc(Cl)cc4F)n3n2)n[nH]1 [LY2784544],−1.068 POC
5,CC(C)N(CCCNC(=O)Nc1ccc(C(C)(C)C)cc1)C[C@H]1O[C@@H](n2cc(Br)c3c(N)ncnc32)[C@H](O)[C@@H]1O [SGC 0946],1.268 POC
6,"c1cc(-c2cnn3cc(-c4ccc(OCCN5CCCCC5)cc4)cnc23)ccn1 [Dorsomorphin (Compourd C), Dorsomorphin]",7.913 POC
7,CC(=O)N1c2ccc(-c3ccc(C(=O)O)cc3)cc2[C@H](Nc2ccc(Cl)cc2)C[C@@H]1C [GSK1324726A],0.1295 POC
8,CC(C)(CNC(=O)c1cccc(-c2noc(C(F)(F)F)n2)c1)c1coc(-c2ccccc2)n1 [TMP-195],0.5425 POC
9,CN1CCN(C(=O)CN[C@H]2C[C@@H]2c2ccc(OCc3ccccc3)cc2)CC1.Cl.Cl [RN-1 (hydrochloride)],−2.198 POC
10,NC(=O)c1cccnc1 [Nicotinamide],−2.471 POC
11,O=C(O)c1ccc(Nc2ncc3c(n2)-c2ccc(Cl)cc2C(c2c(F)cccc2F)=NC3)cc1 [MLN8054],−12.87 POC
12,CC1COc2c(N3CCN(C)CC3)c(F)cc3c(=O)c(C(=O)O)cn1c23 (stereo not shown) [Ofloxacin],5.913 POC
13,"Oc1cc(O)c2cc(O)c(-c3cc(O)c(O)c(O)c3)[o+]c2c1 [Delphinidin (chloride), Delphinidin]",9.89 POC
14,Cl.O=S(=O)(c1cccc2cnccc12)N1CCNCC1 [HA-100 (hydrochloride)],12.45 POC
15,COc1ccc(-c2nc(N3CCOCC3)c3sc(CN(C)c4ncc(C(=O)NO)cn4)cc3n2)cn1 [CUDC-907],8.159 POC
16,CCCOc1ccc(CCc2nc3cc(-c4c(C)noc4C)ccc3n2CCN2CCOCC2)cc1.Cl [PF-CBP1 hydrochloride],9.953 POC
17,Nc1nc(OCc2cc(Br)cs2)c2[nH]cnc2n1 [Lomeguatrib],9.851 POC
18,Oc1ccc(C=Cc2cc(O)cc(O)c2)cc1 [Resveratrol],0.9482 POC
19,O=c1[nH]cnc2c1ncn2[C@@H]1O[C@H](CO)[C@@H](O)[C@H]1O [INO-1001],−1.319 POC
20,COc1cccc2c1C(=O)c1c(O)c3c(c(O)c1C2=O)C[C@@](O)(C(=O)CO)C[C@@H]3O[C@H]1C[C@H](N)[C@H](O[C@@H]2CCCCO2)[C@H](C)O1 [Pirarubicin],6.408 POC
21,"Cl.NC(=O)[C@H](CCCN=C(N)CCl)NC(=O)c1ccccc1 [CI-Amidine (hydrochloride), CI-Amidine]",5.451 POC

# Same assay, conditions: 10 uM, 48 hrs; average relative cell viability (vs 1% DMSO) of non-amplified cells (OVSAHO, CAOV3) minus that of MYC-HSF1 amplified cells (OVCAR8, OVCAR4); positive = greater response in amplified cells; 10 µM
row,Molecule,Non Amp - AMP (POC) 10 uM
1,CCCC(CCC)C(=O)O [Valproic acid],−3.268 POC
2,CCCCNNC(=O)c1ccc(Br)cc1 [UF010],54.18 POC
3,"CCCCc1nc2cc(/C=C/C(=O)NO)ccc2n1CCN(CC)CC [SB939, Pracinostat]",42.19 POC
4,COc1ccccc1C(=O)Nc1cc2c(cc1N1CCCC1)n(C)c(=O)n2C [PFI-4],17.43 POC
5,CN(C)Cc1c(C(=O)NCCOc2ccc(C(=O)NO)cc2)oc2ccccc12 [PCI 24781],42.57 POC
6,COc1cccc2c1C(=O)c1c(O)c3c(c(O)c1C2=O)C[C@@](O)(C(=O)CO)C[C@@H]3O[C@H]1C[C@H](N)[C@H](O)[C@H](C)O1 [Doxorubicin],4.864 POC
7,"CC(=O)Nc1ccc(C(=O)Nc2ccccc2N)cc1 [CI-994, Tacedinaline]",25.18 POC
8,"CCOC(=O)NCCCC(=O)NCCc1ccccc1 [CAY10683, Santacruzamate A]",18.98 POC
9,O=C(O)c1ccc(O)c2ncccc12 [IOX1],11.45 POC
10,CCOC(=O)Nc1cc(-c2ccc(C)c(NS(C)(=O)=O)c2)nn2c(C)nnc12 [Bromosporine],15.35 POC and 21.43 POC
11,CC(C)(C)OC(=O)Nc1ccc(-c2cc(C(=O)NCCCCCCC(=O)NO)no2)cc1 [CAY10603],43.89 POC and 29.05 POC
12,O=C(O)C(Cc1c[nH]c2ccccc12)N1C(=O)c2ccccc2C1=O (stereo not shown) [RG108],17.36 POC

# Same assay, conditions: 10 uM, 48 hrs; average relative cell viability (vs 1% DMSO) of non-amplified cells (OVSAHO, CAOV3) minus that of MYC-HSF1 amplified cells (OVCAR8, OVCAR4); positive = greater response in amplified cells; listed as CI994 (Tacedinaline), 10 µM
row,Molecule,Non Amp - AMP (POC) 10 uM
1,"CC(=O)Nc1ccc(C(=O)Nc2ccccc2N)cc1 [CI-994, Tacedinaline]",16.47 POC

# Same assay, conditions: 10 uM, 48 hrs; average relative cell viability (vs 1% DMSO) of non-amplified cells (OVSAHO, CAOV3) minus that of MYC-HSF1 amplified cells (OVCAR8, OVCAR4); positive = greater response in amplified cells; listed as IOX 1, 10 µM
row,Molecule,Non Amp - AMP (POC) 10 uM
1,O=C(O)c1ccc(O)c2ncccc12 [IOX1],2.198 POC

# Same assay, conditions: 10 uM, 48 hrs; average relative cell viability (vs 1% DMSO) of non-amplified cells (OVSAHO, CAOV3) minus that of MYC-HSF1 amplified cells (OVCAR8, OVCAR4); positive = greater response in amplified cells; listed as PCI-24781 (CRA-024781), 10 µM
row,Molecule,Non Amp - AMP (POC) 10 uM
1,CN(C)Cc1c(C(=O)NCCOc2ccc(C(=O)NO)cc2)oc2ccccc12 [PCI 24781],28.7 POC

# Same assay, conditions: 10 uM, 48 hrs; average relative cell viability (vs 1% DMSO) of non-amplified cells (OVSAHO, CAOV3) minus that of MYC-HSF1 amplified cells (OVCAR8, OVCAR4); positive = greater response in amplified cells; listed as PFI 4, 10 µM
row,Molecule,Non Amp - AMP (POC) 10 uM
1,COc1ccccc1C(=O)Nc1cc2c(cc1N1CCCC1)n(C)c(=O)n2C [PFI-4],−0.5403 POC

# Same assay, conditions: 10 uM, 48 hrs; average relative cell viability (vs 1% DMSO) of non-amplified cells (OVSAHO, CAOV3) minus that of MYC-HSF1 amplified cells (OVCAR8, OVCAR4); positive = greater response in amplified cells; listed as Pracinostat (SB939), 10 µM
row,Molecule,Non Amp - AMP (POC) 10 uM
1,"CCCCc1nc2cc(/C=C/C(=O)NO)ccc2n1CCN(CC)CC [SB939, Pracinostat]",22.93 POC

# Same assay, conditions: 10 uM, 48 hrs; average relative cell viability (vs 1% DMSO) of non-amplified cells (OVSAHO, CAOV3) minus that of MYC-HSF1 amplified cells (OVCAR8, OVCAR4); positive = greater response in amplified cells; listed as RG 108, 10 µM
row,Molecule,Non Amp - AMP (POC) 10 uM
1,O=C(O)C(Cc1c[nH]c2ccccc12)N1C(=O)c2ccccc2C1=O (stereo not shown) [RG108],−2.615 POC

# Same assay, conditions: 10 uM, 48 hrs; average relative cell viability (vs 1% DMSO) of non-amplified cells (OVSAHO, CAOV3) minus that of MYC-HSF1 amplified cells (OVCAR8, OVCAR4); positive = greater response in amplified cells; listed as Santacruzamate A (CAY10683), 10 µM
row,Molecule,Non Amp - AMP (POC) 10 uM
1,"CCOC(=O)NCCCC(=O)NCCc1ccccc1 [CAY10683, Santacruzamate A]",−0.9653 POC

# Same assay, conditions: 10 uM, 48 hrs; average relative cell viability (vs 1% DMSO) of non-amplified cells (OVSAHO, CAOV3) minus that of MYC-HSF1 amplified cells (OVCAR8, OVCAR4); positive = greater response in amplified cells; listed as UF 010, 10 µM
row,Molecule,Non Amp - AMP (POC) 10 uM
1,CCCCNNC(=O)c1ccc(Br)cc1 [UF010],21.86 POC

# Reference: patent publication US20250011881A1, “MYC-HSF1 DUAL AMPLIFICATION AS A BIOMARKER FOR CANCER TREATMENT” (The Trustees of Indiana University, priority 2023, published 2025)
